Reference: PMC9234956 (Journal of Medicinal Chemistry, 2022)
Numbering of substitutions follows the chain as printed. Counter-ions that a name gives are not always drawn. Like-named read-outs stand apart in the source and are kept apart here. Marks after values point to notes of the source that are not given here.

Legend:
human GLP-1R [1] = target: T1, human GLP-1R (Homo sapiens, UniProt P43220); settings: for SA cAMP – BETP slope: slope of concentration-response curve
[2] = Intrinsic metabolic clearance in cryopreserved human hepatocytes; type: in vitro ADME
human GLP-1R [3] = target: T1, human GLP-1R; assay: BETP-sensitized cAMP screening assay; type: cell-based; settings: for SA cAMP + BETP slope: slope of concentration-response curve
[4] = Intrinsic metabolic clearance in human liver microsomes; type: in vitro ADME; settings: scaled from in vitro half-life; for CLint scaled: human, liver microsomes, HLM CLint
human GLP-1R [5] = target: T1, human GLP-1R; settings: assay medium
human GLP-1R [6] = target: T1, human GLP-1R; assay: cAMP assay in candidate selection; settings: for CS cAMP slope: slope of concentration-response curve
[7] = rat, Tris salt, fasted
[8] = monkey, 5.0 mg/kg po, Tris salt, fasted
[9] = single oral doses 3–300 mg, fasted
human GLP-1R W33S = human GLP-1R W33S (Homo sapiens, UniProt P43220, W33S); assay: cAMP, functional assessment of GLP-1R mutants: human W33S
Chain of human GLP-1R W33S (P43220 24-463 W33S): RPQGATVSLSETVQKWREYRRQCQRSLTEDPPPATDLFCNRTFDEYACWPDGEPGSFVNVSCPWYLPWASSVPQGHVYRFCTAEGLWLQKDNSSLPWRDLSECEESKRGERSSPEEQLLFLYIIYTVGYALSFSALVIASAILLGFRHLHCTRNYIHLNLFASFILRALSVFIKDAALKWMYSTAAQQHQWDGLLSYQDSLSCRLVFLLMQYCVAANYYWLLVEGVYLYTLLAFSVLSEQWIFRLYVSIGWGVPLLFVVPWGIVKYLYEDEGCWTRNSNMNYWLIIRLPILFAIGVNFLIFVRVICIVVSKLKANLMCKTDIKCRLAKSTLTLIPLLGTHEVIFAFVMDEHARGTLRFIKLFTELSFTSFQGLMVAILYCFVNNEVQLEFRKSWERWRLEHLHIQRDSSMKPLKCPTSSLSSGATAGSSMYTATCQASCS

in vivo [10] = settings: male, cynomolgus monkey, plasma, iv, 1 mg/kg
human GLP-1R [11] = target: T1, human GLP-1R
in vivo [12] = settings: male, Wistar-Han, rat, plasma, iv, 1 mg/kg
cynomolgus monkeys [13] = assay: Intravenous glucose tolerance test; settings: iv infusion
human GLP-1R [14] = target: T1, human GLP-1R; remark: listed apart in the source
rat GLP-1R = target: T2, rat GLP-1R (Rattus norvegicus, UniProt P32301); assay: cAMP accumulation, CHO cells expressing rat GLP-1R; type: cell-based
T2 sequence (P32301 22-463): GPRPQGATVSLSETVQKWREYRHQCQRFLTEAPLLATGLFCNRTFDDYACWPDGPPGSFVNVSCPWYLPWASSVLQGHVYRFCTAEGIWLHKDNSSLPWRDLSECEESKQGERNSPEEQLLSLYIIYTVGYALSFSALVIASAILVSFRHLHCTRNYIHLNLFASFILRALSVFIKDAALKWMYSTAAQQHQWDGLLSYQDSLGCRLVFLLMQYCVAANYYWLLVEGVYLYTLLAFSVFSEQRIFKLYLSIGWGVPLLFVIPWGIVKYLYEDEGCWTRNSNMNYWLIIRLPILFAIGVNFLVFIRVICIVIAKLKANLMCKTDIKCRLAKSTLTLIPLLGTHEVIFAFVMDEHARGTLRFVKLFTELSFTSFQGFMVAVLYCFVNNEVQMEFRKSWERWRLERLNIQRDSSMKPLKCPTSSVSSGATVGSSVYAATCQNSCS

human GLP-1R [15] = target: T1, human GLP-1R; assay: βArr1 recruitment, DiscoverX PathHunter cell line, buffer with 0.1% BSA; type: cell-based; settings: buffer containing 0.1% BSA
mouse GLP-1R S33W = target: T3, mouse GLP-1R S33W (Mus musculus, UniProt O35659, S33W)
T3 sequence (O35659 22-463 S33W): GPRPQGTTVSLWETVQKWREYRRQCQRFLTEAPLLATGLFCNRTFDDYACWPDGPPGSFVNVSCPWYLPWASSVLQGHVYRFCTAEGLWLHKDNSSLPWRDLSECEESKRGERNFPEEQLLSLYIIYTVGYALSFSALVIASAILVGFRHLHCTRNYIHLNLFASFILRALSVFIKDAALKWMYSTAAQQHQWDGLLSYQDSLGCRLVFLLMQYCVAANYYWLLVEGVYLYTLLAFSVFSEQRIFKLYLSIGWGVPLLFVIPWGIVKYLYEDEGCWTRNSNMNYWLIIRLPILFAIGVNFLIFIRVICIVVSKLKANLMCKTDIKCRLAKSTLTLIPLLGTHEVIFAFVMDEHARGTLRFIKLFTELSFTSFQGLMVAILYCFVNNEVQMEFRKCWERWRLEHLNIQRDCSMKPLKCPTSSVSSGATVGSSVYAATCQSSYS

GFP-tagged human GLP-1R = GFP-tagged human GLP-1R (Homo sapiens, UniProt P43220); assay: Confocal microscopy of GFP-tagged human GLP-1R in HEK 293 cells; type: cell-based; settings: stimulation for 30 min; reversible following a 2 h washout
Chain of GFP-tagged human GLP-1R (P43220 24-463): as the sequence (P43220 24-463 W33S) above, with S10W counted along it

cynomolgus monkeys [16] = assay: Cynomolgus monkey food intake; type: in vivo; settings: 2.9 mg/kg subcutaneous once daily for 2 days
human GLP-1R [17] = target: T1, human GLP-1R; settings: relative to liraglutide; HEK 293 FAP-GLP1R
[18] = tested on: healthy adult participants; assay: Phase 1 first-in-human single ascending dose study: safety
mouse GLP-1R = target: T4, mouse GLP-1R (Mus musculus, UniProt O35659); assay: cAMP accumulation, CHO cells expressing mouse GLP-1R; type: cell-based
T4 sequence (O35659 22-463): T3 sequence (O35659 22-463 S33W) with W12S

rabbit GLP-1R = target: T5, rabbit GLP-1R (Oryctolagus cuniculus, UniProt G1SGD4); assay: cAMP accumulation, CHO cells expressing rabbit GLP-1R; type: cell-based
T5 sequence (G1SGD4 24-462): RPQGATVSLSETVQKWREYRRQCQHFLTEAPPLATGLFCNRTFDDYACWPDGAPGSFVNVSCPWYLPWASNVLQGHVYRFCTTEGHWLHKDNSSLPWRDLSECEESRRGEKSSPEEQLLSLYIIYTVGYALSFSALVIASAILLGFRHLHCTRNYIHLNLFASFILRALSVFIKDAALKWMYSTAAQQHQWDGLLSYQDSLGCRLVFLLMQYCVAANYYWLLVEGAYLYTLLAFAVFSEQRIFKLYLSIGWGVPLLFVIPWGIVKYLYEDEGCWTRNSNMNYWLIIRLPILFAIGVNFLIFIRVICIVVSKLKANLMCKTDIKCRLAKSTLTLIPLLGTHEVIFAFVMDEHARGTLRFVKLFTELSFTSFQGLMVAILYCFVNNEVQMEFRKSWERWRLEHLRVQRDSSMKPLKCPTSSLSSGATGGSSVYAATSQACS

human GLP-1R [19] = target: T1, human GLP-1R; assay: βArr2 recruitment, DiscoverX PathHunter cell line, buffer with 0.1% BSA; type: cell-based; settings: for βArr2 slope: buffer containing 0.1% BSA

T1 sequence (P43220 24-463): as the sequence (P43220 24-463 W33S) above, with S10W counted along it

SMILES: Cn1c(CN2CCC(c3nc(OCc4ccc(Cl)cc4F)ncc3F)CC2)nc2ccccc21 [compound 2]
- GLP-1R agonist activity in the unpotentiated cAMP SA (human GLP-1R [1]; without BETP): inactive
- hHEP CLint [2]: 48 (n = 1) μL/min/million
- SA cAMP + BETP slope (human GLP-1R [3]): 1.3 ± 0.75
- CLint scaled [4]: > 150 mL/min/kg

SMILES: Cn1c(CN2CCC(c3cccc(OCc4ccc(Cl)cc4F)n3)CC2)nc2ccncc21 [compound 3]
- SA cAMP – BETP slope (human GLP-1R [1]): 1.2 ± 0.26
- hHEP CLint [2]: 55 (n = 1) μL/min/million
- fold more potent than HTS hit 2 (human GLP-1R [3]; SA + BETP EC50): > 100 fold
- SA cAMP + BETP slope (human GLP-1R [3]): 0.89 ± 0.17
- βArr2 + BETP slope (human GLP-1R [5]): 0.97 ± 0.10
- CLint scaled [4]: 130 mL/min/kg
- HLM CLint [4]: 140 ± 46 (n = 3) mL/min/kg

SMILES: Cn1c(CN2CCC(c3cccc(OCc4ccc(Cl)cc4F)n3)CC2)nc2ccc(C(=O)O)nc21 [compound 5]
- SA cAMP – BETP slope (human GLP-1R [1]): 1.1 ± 0.17
- agonist character in CS cAMP assay (human GLP-1R [6]): full agonist
- fold less potent in CS cell line than in SA (human GLP-1R [6]; CS vs SA cAMP EC50): ~20 fold
- CS cAMP slope (human GLP-1R [6]): 1 ± 0.14
- SA cAMP + BETP slope (human GLP-1R [3]): 0.97 ± 0.15
- βArr2 + BETP slope (human GLP-1R [5]): 0.69 ± 0.13
- CLint scaled [4]: 29 ± 4.4 mL/min/kg

SMILES: N#Cc1ccc(COc2cccc(C3CCN(Cc4nc5ccc(C(=O)O)cc5n4C[C@@H]4CCO4)CC3)n2)c(F)c1 [Danuglipron, Tris salt, (S)-2-[(4-{6-[(4-Cyano-2-fluorobenzyl)oxy]pyridin-2-yl}piperidin-1-yl)methyl]-1-(oxetan-2-ylmethyl)-1H-benzo[d]imidazole-6-carboxylic Acid]
- oral F ([7]; 5.0 mg/kg po): 11 (10, 12) %
- oral F ([7]; 100 mg/kg po): 39 (37, 44) %
- oral F [8]: 5.0 (4.0, 6.0) %

SMILES: N#Cc1ccc(COc2cccc(C3CCN(Cc4nc5ccc(C(=O)O)cc5n4C[C@@H]4CCO4)CC3)n2)c(F)c1 [danuglipron, (S)-2-[(4-{6-[(4-Cyano-2-fluorobenzyl)oxy]pyridin-2-yl}piperidin-1-yl)methyl]-1-(oxetan-2-ylmethyl)-1H-benzo[d]imidazole-6-carboxylic Acid]
- increase of plasma exposure (Cmax, AUCinf) with dose [9]: approximately dose-proportional
- cAMP signaling at human GLP-1R W33S (human GLP-1R W33S): failed to induce signaling
- cAMP signaling at human GLP-1R W33S (human GLP-1R W33S; listed as Danuglipron): negated
- clearance at 24 h (in vivo [10]): 13.8 mL/min/kg
- half-life (in vivo [10]): 1.9 h
- [125I]GLP-1 binding slope (human GLP-1R [11]): 0.70 ± 0.099
- clearance at 24 h (in vivo [12]): 57.3 ± 8.68 mL/min/kg
- half-life (in vivo [12]): 1.1 h
- insulin secretion during IVGTT (cynomolgus monkeys [13]): increase in the rate of insulin secretion
- rate of glucose disappearance (K value) during IVGTT (cynomolgus monkeys [13]): increased the rate of glucose disappearance
- insulin secretion during IVGTT (cynomolgus monkeys [13]; listed as Danuglipron): enhanced insulin secretion
- SA cAMP – BETP slope (human GLP-1R [1]): 1.1 ± 0.11
- [3H]PF-06883365 binding slope (human GLP-1R [14]): 1 ^b
- effect on cAMP levels (rat GLP-1R): did not increase cAMP levels
- βArr1 slope (human GLP-1R [15]): 0.90 ± 0.067
- cAMP signaling at mouse GLP-1R S33W (mouse GLP-1R S33W): increased the level of accumulation of cAMP
- cAMP signaling at mouse GLP-1R S33W (mouse GLP-1R S33W; listed as Danuglipron): restored
- agonist character in CS cAMP assay (human GLP-1R [6]): full agonist
- CS cAMP slope (human GLP-1R [6]): 1.1 ± 0.14
- intracellular accumulation of GFP-GLP-1R (GFP-tagged human GLP-1R): marked intracellular accumulation of the GFP-GLP-1R
- SA cAMP + BETP slope (human GLP-1R [3]): 0.98 ± 0.029
- food intake versus vehicle (cynomolgus monkeys [16]): inhibited food intake
- Bias factor (toward cAMP), cAMP vs Internalization (human GLP-1R [17]): 3.6
- post-dose fasting serum glucose levels ([18]; after single doses, healthy participants): remained within the normal reference range
- tolerability after po administration under fasted conditions ([18]; single doses 3 to 300 mg, healthy adults): generally well tolerated
- effect on cAMP levels (mouse GLP-1R): did not increase cAMP levels
- effect on cAMP levels (rabbit GLP-1R): did not increase cAMP levels
- agonist character in βArr2 recruitment (human GLP-1R [19]): partial agonist
- βArr2 slope (human GLP-1R [19]): 1 ± 0.18

SMILES: Cn1c(CN2CCC(c3cccc(OCc4ccc(Cl)cc4F)n3)CC2)nc2nccc(NCC(=O)O)c21 [compound 4]
- SA cAMP – BETP slope (human GLP-1R [1]): 0.75 ± 0.18
- SA cAMP + BETP slope (human GLP-1R [3]): 0.76 ± 0.058
- βArr2 + BETP slope (human GLP-1R [5]): 0.93 (0.98, 0.88)
- CLint scaled [4]: < 11 mL/min/kg

SMILES: CCn1cncc1Cn1c(CN2CCC(c3cccc(OCc4ccc(F)cc4F)n3)CC2)nc2ccc(C(=O)O)cc21 [PF-06883365]
- SA cAMP – BETP slope (human GLP-1R [1]): 0.98 ± 0.12
- [3H]PF-06883365 binding slope (human GLP-1R [14]): 1.0 ± 0.15
- βArr1 slope (human GLP-1R [15]): 0.94 ± 0.013
- CS cAMP slope (human GLP-1R [6]): 1.1 ± 0.19
- βArr2 slope (human GLP-1R [19]): 0.79 ± 0.12
